The target in this test is T1, AORX514 (AOR-His) (Thermoanaerobacter pseudethanolicus, UniProt B0K8P3).
T1 construct: gene Teth39_0850; full length, C-terminal 6xHis (plasmid pJM009), made in Thermoanaerobacter kivui MB014; W-containing, FeS cluster
The test can be described thus: acetaldehyde-dependent viologen reduction at […] nm; substrate inhibition kinetics. Type of test: biochemical. To be noted: benzyl viologen as electron acceptor, routine assay 50 mM TRIS pH 7.5, 65 °C, anoxic.

T1 sequence (B0K8P3 1-599): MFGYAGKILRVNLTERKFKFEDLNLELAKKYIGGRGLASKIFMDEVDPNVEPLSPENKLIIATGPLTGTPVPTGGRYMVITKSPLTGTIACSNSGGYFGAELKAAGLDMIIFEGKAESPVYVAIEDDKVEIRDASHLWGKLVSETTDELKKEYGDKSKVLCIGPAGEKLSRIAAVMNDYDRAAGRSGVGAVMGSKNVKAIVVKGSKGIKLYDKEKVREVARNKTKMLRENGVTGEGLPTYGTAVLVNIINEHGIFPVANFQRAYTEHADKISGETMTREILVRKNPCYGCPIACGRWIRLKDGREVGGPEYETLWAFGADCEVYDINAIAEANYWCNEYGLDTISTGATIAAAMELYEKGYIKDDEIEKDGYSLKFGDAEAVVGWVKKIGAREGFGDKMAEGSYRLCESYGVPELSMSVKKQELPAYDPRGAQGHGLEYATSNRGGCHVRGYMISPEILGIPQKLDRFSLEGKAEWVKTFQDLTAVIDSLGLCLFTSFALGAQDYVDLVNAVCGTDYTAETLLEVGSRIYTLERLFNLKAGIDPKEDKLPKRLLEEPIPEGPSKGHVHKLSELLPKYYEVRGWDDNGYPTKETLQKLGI

`CC=O` [Acetaldehyde]: the ki came out at 8.7 ± 1.3 mM.

The record behind these values is article PMC10816221, “A Versatile Aldehyde: Ferredoxin Oxidoreductase from the Organic Acid Reducing Thermoanaerobacter sp. Strain X514” (International Journal of Molecular Sciences, 2024).
